From patent US10654868B2, “Dihydropyrazole azepine compound serving as Akt inhibitor” (HARBIN ZHENBAO PHARMACEUTICAL CO., LTD., priority 2016, dated 2020)

How the values were obtained:
Akt1 = target: T1, Akt1 (Homo sapiens, UniProt P31749); experiment: Akt1 kinase inhibition, LANCE TR-FRET; type: biochemical
T1 construct: purchased life technology lot11629928C (lot number only, catalogue number not given)
Method: (§1) Study 1: The Inhibitory Effect of the Compounds on the Activity of Akt1, Akt2 and Akt3
Akt1 protein (life technology # lot11629928C)
(§2) In this experiment, a homogeneous time-resolved fluorescence […] energy transfer (LANCE TR-FRET®) method was used. In the assay plate, enzymes, biotinylated polypeptide substrates and compound to be tested were mixed, and ATP was added to initiate the reaction and the mixture was incubated. After that, EDTA was added to terminate the reaction while an Eu-labeled antibody was added to carry out the reaction and the reaction was then detected. The assay plate was analyzed by PE company's Envision, and the analysis mode was TR-FRET. The data were represented by fluorescence signals at 665 nm and 615 nm, respectively.
(§3) Compound formulation: compound to be tested and the reference compound were diluted with 100% DMSO, the initial concentration of the compound was 10 uM, and diluted by 10 times in a 3-fold gradient. Transfer the compound to the cell plate and duplicate each well.
(§4) Kinase assay: the enzyme and substrate were mixed with different concentrations of pre-diluted compounds. […] Leave at room temperature for 15 min and diplicate each concentration. ATP was added, and the final concentrations were 36 uM, 360 uM and 160 uM in Akt1, Akt2, and Akt3 kinase reactions, respectively, and the reaction was carried out for 90 min at room temperature (in which negative and positive controls were set). After the reaction was completed, the antibody was added and the mixture was detected, and the cells were incubated for 60 min at room temperature, and then collected by Evnvision. Data analysis and fitting according to *Lfit5 software.

Akt3 = target: T2, Akt3 (Homo sapiens, UniProt Q9Y243); experiment: Akt3 kinase inhibition, LANCE TR-FRET; type: biochemical; settings: Akt3 2 nM, ATP 160 uM, 90 min at room temperature
T2 construct: purchased life technology lot 1715050B (lot number only, catalogue number not given)
T2 sequence (Q9Y243 whole entry): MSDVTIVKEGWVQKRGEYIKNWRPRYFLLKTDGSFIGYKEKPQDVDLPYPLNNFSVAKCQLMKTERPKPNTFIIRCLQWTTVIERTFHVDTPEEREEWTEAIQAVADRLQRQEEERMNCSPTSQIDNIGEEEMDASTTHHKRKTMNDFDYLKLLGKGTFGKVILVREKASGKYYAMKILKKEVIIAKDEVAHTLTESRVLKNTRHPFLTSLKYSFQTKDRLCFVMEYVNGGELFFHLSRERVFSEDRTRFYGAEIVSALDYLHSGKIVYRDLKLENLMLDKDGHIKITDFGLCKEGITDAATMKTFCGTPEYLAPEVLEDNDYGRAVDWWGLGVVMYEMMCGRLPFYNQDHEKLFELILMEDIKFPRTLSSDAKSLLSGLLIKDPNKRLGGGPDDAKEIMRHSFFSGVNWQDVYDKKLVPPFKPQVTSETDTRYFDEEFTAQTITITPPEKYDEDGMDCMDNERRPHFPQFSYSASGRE
Method: as §1
Akt3 protein (life technology # lot 1715050B)
as §2, §3, §4

Akt2 = target: T3, Akt2 (Homo sapiens, UniProt P31751); experiment: Akt2 kinase inhibition, LANCE TR-FRET; type: biochemical; settings: Akt2 2 nM, ATP 360 uM, 90 min at room temperature
T3 construct: purchased life technology lot 28870GG (lot number only, catalogue number not given)
T3 sequence (P31751 whole entry): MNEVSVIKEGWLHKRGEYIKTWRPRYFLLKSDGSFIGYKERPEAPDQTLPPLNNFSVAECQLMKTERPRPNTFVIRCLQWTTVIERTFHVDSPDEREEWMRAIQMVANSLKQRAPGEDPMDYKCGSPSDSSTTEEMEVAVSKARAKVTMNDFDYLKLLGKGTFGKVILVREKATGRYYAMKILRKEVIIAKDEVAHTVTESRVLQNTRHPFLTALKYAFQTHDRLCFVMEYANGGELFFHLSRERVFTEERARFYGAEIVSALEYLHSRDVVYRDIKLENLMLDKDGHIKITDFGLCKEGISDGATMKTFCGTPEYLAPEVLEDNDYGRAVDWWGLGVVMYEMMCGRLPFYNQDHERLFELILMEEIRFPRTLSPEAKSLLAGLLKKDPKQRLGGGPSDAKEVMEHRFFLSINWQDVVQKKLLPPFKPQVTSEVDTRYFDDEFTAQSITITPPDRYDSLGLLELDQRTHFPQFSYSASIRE
Method: as §1
Akt2 protein (life technology # lot 28870GG)
as §2, §3, §4

LNCaP cells = experiment: LNCaP cell activity, CellTiter-Glo live cell detection; type: cell-based; settings: Homo sapiens, 72 h, 1000 cells per well, incubated 3 days, starting concentration 10 uM
Method: Study 2: inhibitory effects of compounds on LNCaP cell activity
The amount of ATP directly reflects the number and the state of the cells, and the number of live cells can be detected by quantitatively measuring ATP. The live cell assay kit contains luciferase and its substrate. Through the participation of ATP, luciferase can catalyze the substrate, emit a stable optical signal, and the amount of ATP in the cell was determined by detecting the intensity of the signal. Wherein, the optical signal is proportional to the amount of ATP in the cell, and ATP is positively correlated with the number of live cells, so that the cell proliferation can be detected. The assay board is analyzed by PE company's Envision.
LNCaP cell was separately seeded in a 384-well plate, each well contains 1000 cells. The cell plate was placed in a carbon dioxide incubator and incubated overnight.
A duplicated experiment was performed with 10 concentrations of compound in a 3-fold dilution with Bravo.
Compound was transferred to the cell plate with a starting concentration of 10 uM. The cell plate was incubated in a carbon dioxide incubator for 3 days.
The Promega CellTiter-Glo reagent was added to the cell plate and incubated for 10 min at room temperature to stabilize the optical signal. Read the data by a PerkinElmer Envision multi-label analyzer.

T1 sequence (P31749 whole entry): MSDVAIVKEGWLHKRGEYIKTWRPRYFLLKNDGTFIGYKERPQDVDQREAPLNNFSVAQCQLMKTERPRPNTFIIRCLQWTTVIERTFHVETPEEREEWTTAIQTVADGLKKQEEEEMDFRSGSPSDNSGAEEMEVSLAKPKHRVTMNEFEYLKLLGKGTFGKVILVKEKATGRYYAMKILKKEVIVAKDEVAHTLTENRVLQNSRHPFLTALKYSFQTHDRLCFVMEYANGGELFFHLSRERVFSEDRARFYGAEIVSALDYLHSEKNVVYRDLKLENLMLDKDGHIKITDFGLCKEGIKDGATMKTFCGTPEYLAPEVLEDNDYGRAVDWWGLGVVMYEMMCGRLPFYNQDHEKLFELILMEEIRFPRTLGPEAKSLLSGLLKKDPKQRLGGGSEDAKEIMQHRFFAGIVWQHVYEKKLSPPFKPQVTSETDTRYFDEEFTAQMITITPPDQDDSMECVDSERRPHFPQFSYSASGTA

Row | SMILES | IC50 (Akt1) | IC50 (Akt3) | IC50 (Akt2) | IC50 (LNCaP cells)
1 | NC[C@H](Cc1ccc(F)c(F)c1)NC(=O)c1cc2c(o1)CCCn1ncc(Cl)c1-2 [Embodiment 21] | 13.3 nM | 98 nM | 312 nM | 615 nM
2 | NC[C@H](Cc1cccc(F)c1)NC(=O)c1cc2c(s1)CCCn1ncc(-c3cccnc3)c1-2 [Embodiment 24] | 67.4 nM | 398 nM | 1860 nM | 3560 nM
3 | NC[C@H](Cc1cccc(F)c1)NC(=O)c1cc2c(s1)CCCn1ncc(C(F)(F)F)c1-2 [Embodiment 27] | 14.7 nM | 119 nM | 304 nM | 971 nM
4 | NC[C@H](Cc1cccc(F)c1)NC(=O)c1cc2c(s1)CCCn1ncc(F)c1-2 [Embodiment 28] | 33.3 nM | 286 nM | 589 nM | 1420 nM
5 | NCC(CCc1ccccc1)NC(=O)c1cc2c(s1)CCCn1ncc(Cl)c1-2 (stereo not drawn) [Embodiment 29] | 36 nM | 783 nM | 1100 nM | 2620 nM
6 | COC1CCn2ncc(Cl)c2-c2cc(C(=O)N[C@H](CN)Cc3cccc(F)c3)sc21 (stereo partly drawn) [Embodiment 30] | 12.4 nM | 485 nM | 281 nM | 654 nM
7 | NC[C@H](Cc1cccc(F)c1)NC(=O)c1cc2c(s1)C(=O)CCn1ncc(Cl)c1-2 [Embodiment 31] | 124 nM | 819 nM | 3130 nM | 5710 nM
8 | NC[C@H](Cc1cccc(F)c1)NC(=O)c1cc2c(s1)C(O)CCn1ncc(Cl)c1-2 (stereo partly drawn) [Embodiment 32] | 117 nM | 814 nM | 2930 nM | > 10000 nM
9 | NC[C@H](Cc1cccc(F)c1)NC(=O)c1cc2c(s1)C(F)(F)CCn1ncc(Cl)c1-2 [Embodiment 33] | 13 nM | 108 nM | 490 nM | 1750 nM
10 | CNC[C@H](Cc1cccc(F)c1)NC(=O)c1cc2c(s1)CCCn1ncc(Cl)c1-2 [Embodiment 34] | 36 nM | 513 nM | 983 nM | 2360 nM
11 | N#Cc1cnn2c1-c1cc(C(=O)N[C@H](CN)Cc3ccc(F)c(F)c3)sc1OCC2 [Embodiment 42] | 27.5 nM | 416 nM | 900 nM | 663 nM

Now those with a lower IC50 (Akt1), led by results:

Row | IC50 (Akt1) | IC50 (Akt3) | IC50 (Akt2) | IC50 (LNCaP cells) | SMILES
12 | 11 nM | 374 nM | 428 nM | 487 nM | NC[C@H](Cc1ccccn1)NC(=O)c1cc2c(s1)CCCn1ncc(Br)c1-2 [Embodiment 20]
13 | 9.78 nM | 195 nM | 235 nM | 902 nM | NC[C@H](Cc1cccc(F)c1)NC(=O)c1cc2n(n1)CCCn1ncc(Cl)c1-2 [Embodiment 36]
14 | 8.84 nM | 52 nM | 372 nM | 1340 nM | NC[C@H](Cc1cccc(F)c1)NC(=O)c1cc2c(s1)CCCn1ncc(-c3ccccc3)c1-2 [Embodiment 23]
15 | 5.22 nM | 83 nM | 143 nM | 389 nM | CCc1cnn2c1-c1cc(C(=O)N[C@H](CN)Cc3cccc(F)c3)sc1CCC2 [Embodiment 25]
16 | 2.18 nM | 60 nM | 26 nM | 61 nM | Cc1cnn2c1-c1cc(C(=O)N[C@H](CN)Cc3cccc(F)c3)sc1CCC2 [Embodiment 22]
17 | 1.5 nM | 122 nM | 76 nM | 144 nM | Cc1cnn2c1-c1cc(C(=O)N[C@H](CN)Cc3ccc(F)c(F)c3)sc1OCC2 [Embodiment 39]
18 | 1.45 nM | 57 nM | 39 nM | 62 nM | NC[C@H](Cc1cc(F)cc(F)c1)NC(=O)c1cc2c(s1)OCCn1ncc(Br)c1-2 [Embodiment 41]
19 | 0.87 nM | 170 nM | 66 nM | 87 nM | Cc1cnn2c1-c1cc(C(=O)N[C@H](CN)Cc3cc(F)cc(F)c3)sc1OCC2 [Embodiment 40]
20 | 0.43 nM | 34 nM | 22 nM | 150 nM | Cc1cnn2c1-c1cc(C(=O)N[C@H](CN)Cc3ccc(F)c(F)c3)sc1CCC2 [Embodiment 35]
21 | 0.36 nM | 68 nM | 57 nM | 118 nM | NC[C@H](Cc1ccc(F)c(F)c1)NC(=O)c1cc2c(s1)OCCn1ncc(Cl)c1-2 [Embodiment 38]
